What all share (format): cell-based, human
Data set [1] concerns SW620C cells (cisplatin-resistant). Kind of data set: Neutral red uptake viability assay, SW620C. The settings on record: SW620C, 72 h; for survival rate: n = 3, ± SD. As for the experimental part: (§1) The normal lung fibroblast MRC-5 and colorectal adenocarcinoma SW620 cell lines used in this experiment were purchased from American Type Culture Collection (USA) via LGC […]
described previously.10, 11 All cells were cultured under standard conditions (37°C, 5% CO2, 100% humidity) in high-glucose DMEM supplemented with GlutaMaxTM, HEPES (ThermoFisher Scientific, USA), and 10% fetal bovine serum (EURx, Poland). Cells were routinely tested for potential Mycoplasma contamination using the MycoProbe Mycoplasma Detection kit (R&D System, USA).
(§2) In total, 104 cells in 100 µL of complete medium were plated per well of a 96-well plate and left overnight to allow cells to adhere to the surface. Then, the cells were exposed to a desired concentration of tested compound(s). Stock solutions were prepared in DMSO and used immediately. The final DMSO concentration was constant and nontoxic (0.1% v/v). After 70-h incubation, neutral red was added to the final concentration of 1 mM. After another 2 h, the medium was aspirated, and cells were washed twice with PBS. Dye was released using 100 µL of a solubilizer (1% acetic acid in 50% ethanol) on an orbital shaker (10 min). Absorbance was read at 540 nm using EnVision Multilabel Plate Reader (Perkin Elmer, USA). Results were expressed as % of control. The IC50 parameters were calculated using GraphPad Prism version 10 (GraphPad Software, Boston, Massachusetts USA). […]
IC₅₀ values were determined in […]
(§3) All experiments were performed in triplicate (n = 3).

The test system of data set [2] is SW620C cells. The data set is described as follows: Synergy determination (Bliss model, SynergyFinder), SW620C. The settings on record: drug cisplatin + additive; for synergy score: Bliss model. From the text:
(§4) In an ideal setting, the effect of cell exposure to a combination of a chemotherapeutic and an MDR inhibitor should be synergistic. […] The highest synergy scores identified an optimal concentration range where the combination exerted its maximal effect. […] In cisplatin-resistant SW620C cells, the low or lack of synergy observed for most compounds may be due to the additive effects of cisplatin and 4 rather than a true synergistic interaction. […]
(§5) To evaluate the potential interactions between putative ABC inhibitors and anticancer drugs, we utilized the Bliss independence model, as implemented in the SynergyFinder web application.13, 14 Synergy scores and the most synergistic area scores were calculated based on the normalized dose–response matrices. A synergy score below −10 indicates likely […]
(§6) above 10 is indicative of likely synergistic interactions.
(§7) All experiments were performed at least three times, and the data were statistically analyzed

Data set [3] relates to ABCC1-overexpressing SW620M cells. Kind of data set: MDR reversal assay (ERP), SW620M. The settings on record: for ERP value, methotrexate + compound: SW620M (xlsx); for ERP = IC50(drug)MDR/IC50(drug+4)MDR: methotrexate, SW620M. The text has this:
(§8) We investigated the potency of 4a–e to inhibit ABC transporters (ABCB1, ABCC1, and ABCG2) by determining their enhancement of reversal potency (ERP) values. ERP represents fold changes in the IC50 values of anticancer drugs in multidrug-resistant cancer sublines (ABCB1-overexpressing SW620D, SW620E, and SW620V; ABCC1-overexpressing SW620M; ABCG2-overexpressing SW620C and SW620Mito) exposed to a combination of the investigated compounds and anticancer agents at equimolar concentrations, compared with values obtained with drugs alone (Tables S2 and S3 and Figure ).
(§9) Standards. Multidrug-resistant variants of SW620 cells were developed in our laboratory as described previously.10, 11 All cells were cultured under standard conditions (37°C, 5% CO2, 100% humidity) in high-glucose DMEM supplemented with GlutaMaxTM, HEPES (ThermoFisher Scientific, USA), and 10% fetal bovine serum (EURx, Poland). Cells were routinely tested for potential Mycoplasma contamination using the MycoProbe Mycoplasma Detection kit (R&D System, USA).
(§10) In total, 104 cells in 100 µL of complete medium were plated per well of a 96-well plate and left overnight to allow cells to adhere to the surface. Then, the cells were exposed to a desired concentration of tested compound(s). Stock solutions were prepared in DMSO and used immediately. The final DMSO concentration was constant and nontoxic (0.1% v/v). After 70-h incubation, neutral red was added to the final concentration of 1 mM. After another 2 h, the medium was aspirated, and cells were washed twice with PBS. Dye was released using 100 µL of a solubilizer (1% acetic acid in 50% ethanol) on an orbital shaker (10 min). Absorbance was read at 540 nm using EnVision Multilabel Plate Reader (Perkin Elmer, USA). Results were expressed as % of control. The IC50 parameters were calculated using GraphPad Prism version 10 (GraphPad Software, Boston, Massachusetts USA).
(§11) The enhancement of reversal potency (ERP) value determination
(§12) For MDR reversal assays, cytotoxic agents were co-administered with compounds 4a–4e at equimolar concentrations in a range of 10 nM to 100 µM. IC₅₀ values were determined in ABCB1-overexpressing SW620 cell line variants. The enhancement of reversal potency (ERP) was calculated using the following formula: ERP = IC₅₀(drug)MDR / IC₅₀(drug + compound)MDR. All experiments were performed in triplicate (n = 3).

For data set [4], the system named is ABCG2-overexpressing SW620C cells. The data set is described as follows: MDR reversal assay (ERP), SW620C. The settings on record: for ERP value, cisplatin + compound: SW620C (xlsx); for ERP = IC50(drug)MDR/IC50(drug+4)MDR: cisplatin, SW620C.
From the text: as §8, §9, §10, §11, §12

Data set [5] relates to SW620V cells (vincristine-resistant). The data set is described as follows: Neutral red uptake viability assay, SW620V. The settings on record: 72 h; for survival rate: n = 3, ± SD. As for the experimental part:
(§13) In general, compounds 4a–e exerted little or no cytotoxic effect on either SW620 or multidrug-resistant sublines even at 10 μM, with the remarkable exception of SW620C (cisplatin-selected variant of SW620) cells, which turned out to be relatively susceptible toward ferrocenyl 4a–c. […] This trend may reflect steric or electronic contributions to cellular uptake or interaction with intracellular targets. […] However, since E/Z isomeric data are currently available only for compound 4c, this hypothesis requires validation. To quantify this effect, IC50 values were determined (Table ). […]
as §1, §9, §10, §11, §12

The test system of data set [6] is ABCB1-overexpressing SW620E cells. Kind of data set: MDR reversal assay (ERP), SW620E. The conditions noted are these: for ERP value, etoposide + compound: SW620E (xlsx); for ERP = IC50(drug)MDR/IC50(drug+4)MDR: etoposide, SW620E.
From the text: as §8, §9, §10, §11, §12

For data set [7], the system named is SW620D cells (doxorubicin-resistant). The data set is described as follows: Neutral red uptake viability assay, SW620D. The conditions noted are these: 72 h; for survival rate: n = 3, ± SD. As for the experimental part: as §13, §1, §9, §10, §11, §12
Data set [8] concerns SW620Mito cells (mitoxantrone-resistant). The data set is described as follows: Neutral red uptake viability assay, SW620Mito. The settings on record: 72 h; for survival rate: n = 3, ± SD. The procedure: as §13, §1, §9, §2, §3
The test system of data set [9] is SW620E cells. The data set is described as follows: Synergy determination (Bliss model, SynergyFinder), SW620E. The settings on record: drug etoposide + additive; for synergy score: Bliss model.
From the text: as §4, §5, §6, §7

The test system of data set [10] is ABCB1-overexpressing SW620D cells. Kind of data set: MDR reversal assay (ERP), SW620D. The settings on record: for ERP value, doxorubicin + compound: SW620D (xlsx); for ERP = IC50(drug)MDR/IC50(drug+4)MDR: doxorubicin, SW620D.
From the text: as §8, §9, §10, §11, §12

Where [11] appears, read: n = 3, read-out: Cytotoxic activity IC50 (95% CI).

The term IC50 denotes the midpoint of a concentration-inhibition curve. Consider `O=C1N/C(=C\[c-]2cccc2)C(=O)N2CCC[C@@H]12.[Fe+2].c1cc[cH-]c1` [(S,Z)-4a], for which the survival rate in [1] (1 μM) is given as 78 ± 1.8%; in data set [1] (10 μM) it was 54 ± 3.1%; in data set [5] (1 μM) it was 94 ± 0.7%; in data set [5] (10 μM) it was 94 ± 2.5%; in [7] (1 μM), 96 ± 4.8%; in data set [7] (10 μM) it was 93 ± 1.1%. In addition, the figures for the survival rate in [8] (1 μM) and in data set [8] (10 μM) were 98 ± 2.0% and 90 ± 3.1%, respectively. For the same molecule, in data set [1] (n = 3), the “Cytotoxic activity IC50 (95% CI)” value is on record as “low-micromolar”. Moreover, the IC50 in data set [1] (setting [11]) is 15.1 µM; in data set [5] (setting [11]) it was over 100 µM; in [7] (setting [11]), over 100 µM; in data set [8] (setting [11]), over 100 µM. For the same molecule, the “most synergistic area score” value was found to be 4.33 in data set [2] and 28.26 in data set [9]. In addition, the synergy score result in [2] is on record as “–2.62”; in data set [9] it was 12.44. For the same molecule, the “ERP value, methotrexate + compound” value in data set [3] is reported as 1.17. In addition, the “ERP = IC50(drug)MDR/IC50(drug+4)MDR” value is recorded as 1.17 in data set [3], 4.86 in [4], 5.61 in data set [6] and 2.90 in data set [10]. Moreover, the “ERP value, cisplatin + compound” value in data set [4] came to 4.86. Moreover, the “ERP value, etoposide + compound” value in [6] came to 5.61. The “ERP value, doxorubicin + compound” value in data set [10] was found to be 2.90.
As to `O=C1N/C(=C\c2ccccc2)C(=O)N2CCC[C@@H]12` [(S,Z)-4e], the survival rate was 95 ± 2.1% in [1] (1 μM); 95 ± 1.0% in data set [1] (10 μM); 98 ± 0.9% in data set [5] (1 μM); 99 ± 1.4% in data set [5] (10 μM); 96 ± 0.7% in data set [7] (1 μM); 94 ± 2.9% in data set [7] (10 μM). Further, the survival rate in data set [8] (1 μM) is 92 ± 1.3%; in [8] (10 μM) it was 94 ± 1.8%. Also, the results for the “most synergistic area score” value in data set [2] and in data set [9] were 6.66 and 2.22, respectively. Besides, the synergy score entry in data set [2] is “–3.14”; in [9], “–2.56”. In addition, in data set [3], the “ERP value, methotrexate + compound” value was determined as 1.28. Moreover, the “ERP = IC50(drug)MDR/IC50(drug+4)MDR” value in data set [3] is 1.28; in data set [4] it was 0.70; in data set [6] it was 0.88; in data set [10], 0.70. In [4], the “ERP value, cisplatin + compound” value amounted to 0.70. For the same molecule, the “ERP value, etoposide + compound” value in data set [6] was determined as 0.88. Moreover, the “ERP value, doxorubicin + compound” value in [10] was 0.70.
Regarding `O=C1N/C(=C/c2ccccc2)C(=O)N2CCC[C@@H]12` [(S,E)-4e], the survival rate in [1] (1 μM) is listed as 96 ± 0.8%; in data set [1] (10 μM), 95 ± 2.5%; in data set [5] (1 μM) it was 95 ± 2.9%; in [5] (10 μM) it was 95 ± 3.3%; in data set [7] (1 μM), 96 ± 2.4%; in [7] (10 μM), 95 ± 0.7%. For the same molecule, the values for the survival rate in data set [8] (1 μM) and in [8] (10 μM) were 94 ± 0.7% and 96 ± 0.8%, respectively. Further, the figures for the “most synergistic area score” value in data set [2] and in data set [9] were 3.89 and 0.19, respectively. In addition, the synergy score result is on record as “–2.78” in data set [2] and “–3.93” in data set [9]. In [3], the “ERP value, methotrexate + compound” value is recorded as 1.08. In addition, the “ERP = IC50(drug)MDR/IC50(drug+4)MDR” value in data set [3] was determined as 1.08; in data set [4], 1.98; in data set [6] it was 0.88; in data set [10], 0.77. Also, the “ERP value, cisplatin + compound” value in data set [4] turned out to be 1.98. For the same molecule, the “ERP value, etoposide + compound” value in data set [6] came out at 0.88. In addition, the “ERP value, doxorubicin + compound” value in data set [10] came to 0.77.

For the origin of these results see article PMC12257394, “Design, Synthesis, and Biological Evaluation of Ferrocenyl–Cyclo-(Gly‑L‑Pro) Hybrids Sensitizing Multidrug-Resistant Cancer Cells to Anticancer Agents” (ACS Medicinal Chemistry Letters, 2025).
